Assays:
E255K mutant BCR-ABL = target: T1, E255K mutant BCR-ABL (Homo sapiens, UniProt P00519, E255K); experiment: Self-phosphorylation inhibitory effect on mutant (E255K) BCR-ABL in transfected 293T cells (Western blot, PY99); format: cell-based; conditions: 2 hours
T1 construct: expressed in transfected cells; host or cells: 293T cells (ATCC), Lipofectamine transfection; the other entry of the earlier key: BCR (P11274, Breakpoint cluster region protein)
Protocol: The cells were seeded in an amount of 5 ml in a Poly-L-Lysin coated 6 cm dish so as to give 1.2×10^6 cells/well. […] Using a Lipofectamine reagent (manufactured by Invitrogen), 2 μg of E255K mutant bcr-abl gene expression vector was transfected into the cell. […] The dish was incubated in a CO2 incubator for 2 hours. After treatment with trypsin, the cells were collected into a 15 ml centrifuge tube. The tube was centrifuged at 1000 rpm at room temperature for one minute. After removal of the medium, 50 μl of a cell lysis solution was added. The cells were subjected to cytolysis with a mixer. The tube was left to stand at 4° C. for 15 minutes and transferred to 1.5 ml tube. The tube was centrifuged at 12,000 rpm at 4° C. for 15 minutes. The cell lysate was collected into another 1.5 ml tube. The concentration of protein was measured according to BCA method. The samples of cell lysate containing […] of protein was analyzed by SDS-PAGE polyacrylamide. After electrophoresis, the protein was transferred onto a nylon filter (Hybond-P) with wet method at 4° C. overnight. The nylon filter was reacted in 10 ml of PBS/0.1% Tween-20 containing 0.2 μg/ml anti-phosphorylation tyrosin kinase antibody (PY99) (manufactured by Toyobo) at room temperature for one hour. The nylon filter was washed with PBS three times and then reacted 10 ml of PBS/0.1% Tween-20 containing 0.4 μg/ml Anti-mouse IgG AP-conjugated (manufactured by Cell Signaling) at room temperature for one hour. After the nylon filter was washed with PBS four times, self-phosphorylation of p210 BCR-ABL was detected with alkaline phosphatase color developing reagent.
The results are shown as follows: +++: almost perfectly inhibition of phosphorylation; ++: around half of inhibition; +: week inhibition; and −: no inhibition.

K562 cells = experiment: Cell growth inhibitory effect, K562 cells (WST-8, 72 hours); conditions: for IC50: Homo sapiens, K562, 72 h, read-out: K562 cells (IC50 value: μM); for Ratio (U937 cells/K562 cells): ratio of IC50 values U937 cells/K562 cells
U937 cells = experiment: Cell growth inhibitory effect, U937 cells (WST-8, 72 hours); conditions: Homo sapiens, U-937, 72 h, read-out: U937 cells (IC50 value: μM)

T1 sequence (P00519 28-1130 E255K limits assumed): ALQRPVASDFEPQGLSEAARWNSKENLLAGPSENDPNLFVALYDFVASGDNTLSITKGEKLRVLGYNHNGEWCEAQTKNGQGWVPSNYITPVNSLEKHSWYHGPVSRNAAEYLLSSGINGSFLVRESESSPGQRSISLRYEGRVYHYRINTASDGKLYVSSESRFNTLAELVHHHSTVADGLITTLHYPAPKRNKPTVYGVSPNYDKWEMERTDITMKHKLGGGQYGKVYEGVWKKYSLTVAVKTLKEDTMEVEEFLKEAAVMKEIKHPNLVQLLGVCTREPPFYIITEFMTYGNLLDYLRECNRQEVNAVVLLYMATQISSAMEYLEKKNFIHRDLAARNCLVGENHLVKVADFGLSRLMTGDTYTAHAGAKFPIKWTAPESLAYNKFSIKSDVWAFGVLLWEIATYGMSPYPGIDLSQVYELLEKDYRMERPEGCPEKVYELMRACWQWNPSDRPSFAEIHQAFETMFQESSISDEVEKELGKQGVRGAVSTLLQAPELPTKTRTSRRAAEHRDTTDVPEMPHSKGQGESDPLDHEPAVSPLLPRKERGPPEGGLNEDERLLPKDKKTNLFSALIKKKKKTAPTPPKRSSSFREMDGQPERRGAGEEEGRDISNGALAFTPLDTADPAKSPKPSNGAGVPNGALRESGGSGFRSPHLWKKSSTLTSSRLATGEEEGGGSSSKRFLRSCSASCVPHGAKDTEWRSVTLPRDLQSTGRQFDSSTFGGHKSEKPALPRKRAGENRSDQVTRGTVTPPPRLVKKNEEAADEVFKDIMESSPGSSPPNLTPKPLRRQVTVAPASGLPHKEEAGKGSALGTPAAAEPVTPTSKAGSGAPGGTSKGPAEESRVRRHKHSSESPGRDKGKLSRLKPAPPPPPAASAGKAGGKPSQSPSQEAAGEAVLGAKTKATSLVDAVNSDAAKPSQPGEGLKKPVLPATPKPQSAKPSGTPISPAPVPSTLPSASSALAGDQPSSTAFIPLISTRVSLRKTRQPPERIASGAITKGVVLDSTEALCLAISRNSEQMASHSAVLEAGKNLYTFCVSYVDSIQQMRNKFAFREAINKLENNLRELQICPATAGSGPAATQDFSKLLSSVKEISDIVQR

Structure (SMILES)	Self-phosphorylation inhibitory effect on E255K mutant BCR-ABL (E255K mutant BCR-ABL; 1 μM)	Self-phosphorylation inhibitory effect on E255K mutant BCR-ABL (E255K mutant BCR-ABL; 3 μM)	Self-phosphorylation inhibitory effect on E255K mutant BCR-ABL (E255K mutant BCR-ABL; 10 μM)	melting point	IC50 (K562 cells) [µM]	Ratio (U937 cells/K562 cells) (K562 cells)	IC50 (U937 cells) [µM]	Self-phosphorylation inhibitory effect on E255K mutant BCR-ABL (E255K mutant BCR-ABL; 0.1 μM)	Self-phosphorylation inhibitory effect on E255K mutant BCR-ABL (E255K mutant BCR-ABL; 0.3 μM)
Cc1ccc(NC(=O)c2ccc(CN3CCN(C)CC3)c(I)c2)cc1Nc1nccc(-c2cccnc2)n1 [Example 2, 3-iodo-4-(4-methylpiperazin-1-ylmethyl)-N-{4-methyl-3-[4-(3-pyridyl)pyrimidin-2-ylamino]phenyl}benzamide]	+	++	+++	199 to 200 °C (dec.)	0.0023	1452.2	3.34		
Cc1ccc(NC(=O)c2ccc(CN3CCN(C)CC3)c(Cl)c2)cc1Nc1nccc(-c2cccnc2)n1 [Example 3, 3-chloro-4-(4-methylpiperazin-1-ylmethyl)-N-{4-methyl-3-[4-(3-pyridyl)pyrimidin-2-ylamino]phenyl}benzamide]	−	+	+++	193 to 194 °C (dec.)	0.0046	1089.1	5.01		
Cc1ccc(NC(=O)c2ccc(CN3CCN(C)CC3)c(Br)c2)cc1Nc1nccc(-c2cnccn2)n1 [Example 7, 3-bromo-4-(4-methylpiperazin-1-ylmethyl)-N-{4-methyl-3-[4-(2-pyrazinyl)pyrimidin-2-ylamino]phenyl}benzamide]	−	++	+++	213 to 214 °C (dec.)	0.0054	1205.6	6.51		
Cc1ccc(NC(=O)c2ccc(CN3CCN(C)CC3)c(Br)c2)cc1Nc1nccc(-c2cncc(Br)c2)n1 [Example 9, 3-bromo-4-(4-methylpiperazin-1-ylmethyl)-N-{3-[4-(5-bromopyridin-3-yl)pyrimidin-2-ylamino]-4-methylphenyl}benzamide]	+	++	+++	194 to 195 °C (dec.)	0.0017	1094.1	1.86		
Cc1ccc(NC(=O)c2ccc(CN3CCN(C)CC3)c(C(F)(F)F)c2)cc1Nc1nccc(-c2cncc(Br)c2)n1 [Example 10, 4-(4-methylpiperazin-1-ylmethyl)-3-trifluoromethyl-N-{3-[4-(5-bromopyridin-3-yl)pyrimidin-2-ylamino]-4-methylphenyl}benzamide]	++	+++	+++	171 to 173 °C (dec.)	0.0014	2335.7	3.27	−	−
Cc1ccc(NC(=O)c2ccc(CN3CCN(C)CC3)c(Br)c2)cc1Nc1nccc(-c2cncnc2)n1 [Example 13, 3-bromo-4-(4-methylpiperazin-1-ylmethyl)-N-{4-methyl-3-[4-(5-pyrimidinyl)pyrimidin-2-ylamino]phenyl}benzamide]	++	+++	+++	238 to 240 °C (dec.)	0.0012	5166.7	6.2	−	+
COc1cc(C(=O)Nc2ccc(C)c(Nc3nccc(-c4cccnc4)n3)c2)cc(OC)c1CN1CCN(C)CC1 [Example 25, 3,5-dimethoxy-4-(4-methylpiperazin-1-ylmethyl)-N-{4-methyl-3-[4-(3-pyridyl)pyrimidin-2-ylamino]phenyl}benzamide]				201 to 214 °C (dec.)	0.03	566.7	17		
CCCN1CCN(Cc2ccc(C(=O)Nc3ccc(C)c(Nc4nccc(-c5cccnc5)n4)c3)cc2Br)CC1 [Example 28, 3-bromo-4-[4-(n-propyl)piperazin-1-ylmethyl]-N-{4-methyl-3-[4-(3-pyridyl)pyrimidin-2-ylamino]phenyl}benzamide]				204 to 205 °C	0.00065	10723.1	6.97		
Cc1ccc(NC(=O)c2ccc(CN(C)C)c(Br)c2)cc1Nc1nccc(-c2cccnc2)n1 [Example 29, 3-bromo-4-(N,N-dimethylaminomethyl)-N-{4-methyl-3-[4-(3-pyridyl)pyrimidin-2-ylamino]phenyl}benzamide]				154 to 155 °C	0.017	>588.2	> 10		
CCN(CC)Cc1ccc(C(=O)Nc2ccc(C)c(Nc3nccc(-c4cccnc4)n3)c2)cc1Br [Example 30, 3-bromo-4-(N,N-diethylaminomethyl)-N-{4-methyl-3-[4-(3-pyridyl)pyrimidin-2-ylamino]phenyl}benzamide]				172 to 173 °C	0.022	>454.5	> 10		
Cc1ccc(NC(=O)c2ccc(CN3CCCN(C)CC3)c(Br)c2)cc1Nc1nccc(-c2cccnc2)n1 [Example 35, 3-bromo-4-(4-methyl-hexahydro-1H-1,4-diazepin-1-ylmethyl)-N-{4-methyl-3-[4-(3-pyridyl)pyrimidin-2-ylamino]phenyl}benzamide]				156 to 157 °C	0.0075	696.0	5.22		
COC(=O)c1cc(C(=O)Nc2ccc(C)c(Nc3nccc(-c4cccnc4)n3)c2)ccc1CN1CCN(C)CC1 [Example 39, 3-methoxycarbonyl-4-(4-methylpiperazin-1-ylmethyl)-N-{4-methyl-3-[4-(3-pyridyl)pyrimidin-2-ylamino]phenyl}benzamide]				159 to 161 °C (dec.)	0.035	>285.7	> 10		
Cc1ccc(NC(=O)c2ccc(CN3CCN(C)CC3)c(C#N)c2)cc1Nc1nccc(-c2cccnc2)n1 [Example 40, 3-cyano-4-(4-methylpiperazin-1-ylmethyl)-N-{4-methyl-3-[4-(3-pyridyl)pyrimidin-2-ylamino]phenyl}benzamide]				191 to 193 °C (dec.)	0.0054	777.8	4.2		
